In US20230077362A1 (CORTEVA AGRISCIENCE LLC, priority 2019, published 2023):
Where two headings read alike, the source gives them in different places.

Columns and labels:
[1] = system: Cabbage Looper (Trichoplusia ni) ("CL"), second instar larvae; assay: Bioassay on cabbage looper (CL), 128-well diet tray assay; format: in vivo; details: for pest or weed control at 50 µg/cm2 / mortality at 50 µg/cm2: Trichoplusia ni; for CL rating / mortality at 50 µg/cm2: Table ABC, species CL; for CL rating: C = not tested, D = no activity noticed; for mortality at 50 µg/cm2: 128-well diet tray assay, second instar larvae, read-out: CL rating (% control or mortality class)
Method in brief: (§1)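 Read-out: percent larval mortality per well, averaged over 8 wells. Incubation 25° C., 14:10 L:D photoperiod, 5–7 days, trays sealed with clear adhesive cover.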

[2] = system: Beet Armyworm (Spodoptera exigua) ("BAW"), second instar larvae; assay: Bioassay on beet armyworm (BAW), 128-well diet tray assay; format: in vivo; details: for pest or weed control at 50 µg/cm2: Spodoptera exigua; for BAW rating / BAW rating (% control or mortality class): Table ABC, species BAW; for BAW rating: C = not tested, D = no activity noticed; for BAW rating (% control or mortality class): 128-well diet tray assay, second instar larvae
Method in brief: as §1

[3] = read-out: CL (Biological Results, rating)
[4] = read-out: BAW (Biological Results, rating)

Cc1ccc(COCC(F)(F)F)c(N2C(=O)CS/C2=N\C(=O)Nc2ccc(-c3ncn(-c4ccc(C(F)(F)F)cc4)n3)cc2)c1 [Compound J332, (Z)-1-(3-(5-Methyl-2-((2,2,2-trifluoroethoxy)methyl)phenyl)-4-oxothiazolidin-2-ylidene)-3-(4-(1-(4-(trifluoromethyl)phenyl)-1H-1,2,4-triazol-3-yl)phenyl)urea]
pest or weed control at 50 µg/cm2 [1, 3]: 50 to 100% | pest or weed control at 50 µg/cm2 [2, 4]: 50 to 100%

CN(C)c1ccc(OCC(F)(F)F)c(N2C(=O)CS/C2=N\C(=O)Nc2ccc(-n3cnc(-c4ccc(OC(F)(F)F)cc4)n3)cc2F)c1 [Compound J688, (Z)-1-(3-(5-(Dimethylamino)-2-(2,2,2-trifluoroethoxy)phenyl)-4-oxothiazolidin-2-ylidene)-3-(2-fluoro-4-(3-(4-(trifluoromethoxy)phenyl)-1H-1,2,4-triazol-1-yl)phenyl)urea]
pest or weed control at 50 µg/cm2 ([1]; read-out: CL rating): 50 to 100% | pest or weed control at 50 µg/cm2 ([2]; read-out: BAW rating): 50 to 100%

Cc1ccc(N2C(=O)CS/C2=N\C(=O)Nc2ccc(-c3ncn(-c4ccc(OC(F)(F)F)cc4)n3)cc2C)c(COCC(F)(F)F)c1 [Compound J448]
CL rating [1]: A (50-100) | BAW rating [2]: A (50-100)

COc1ccc(C(C)C)c(N2C(=O)CS/C2=N\C(=O)Nc2ccc(-c3ncn(-c4ccc(OC(F)(F)F)cc4)n3)cc2C#N)c1 [Compound J246, (Z)-1-(2-Cyano-4-(1-(4-(trifluoromethoxy)phenyl)-1H-1,2,4-triazol-3-yl)phenyl)-3-(3-(2-isopropyl-5-methoxyphenyl)-4-oxothiazolidin-2-ylidene)urea]
pest or weed control at 50 µg/cm2 [1, 3]: 50 to 100% | pest or weed control at 50 µg/cm2 [2, 4]: 50 to 100%

Cc1ccc(OCC(F)(F)F)c(N2C(=O)CS/C2=N\C(=O)Nc2ccc(-c3cn(-c4ccc(S(F)(F)(F)(F)F)cc4)cn3)cc2F)c1 [Compound J596, (Z)-1-(2-Fluoro-4-(1-(4-(pentafluoro-λ^6-sulfaneyl)phenyl)-1H-imidazol-4-yl)phenyl)-3-(3-(5-methyl-2-(2,2,2-trifluoroethoxy)phenyl)-4-oxothiazolidin-2-ylidene)urea]
pest or weed control at 50 µg/cm2 ([1]; read-out: CL rating): 50 to 100% | pest or weed control at 50 µg/cm2 ([2]; read-out: BAW rating): 50 to 100%

COC(C)c1ccc(C)cc1N1C(=O)CS/C1=N\C(=O)Nc1ccc(-c2nnc(-c3ccc(OC(F)(F)F)cc3)s2)cc1F (stereo not drawn) [Compound J504, (Z)-1-(2-Fluoro-4-(5-(4-(trifluoromethoxy)phenyl)-1,3,4-thiadiazol-2-yl)phenyl)-3-(3-(2-(1-methoxyethyl)-5-methylphenyl)-4-oxothiazolidin-2-ylidene)urea]
pest or weed control at 50 µg/cm2 ([1]; read-out: CL rating): 50 to 100% | pest or weed control at 50 µg/cm2 ([2]; read-out: BAW rating): 0 to 50%

COC(C)c1ccc(C)cc1N1C(=O)CS/C1=N\C(=O)Nc1ccc(-c2ncn(-c3ccc(C(F)(F)F)cn3)n2)cc1C(F)(F)F (stereo not drawn) [Compound J303, (Z)-1-(3-(2-(1-Methoxyethyl)-5-methylphenyl)-4-oxothiazolidin-2-ylidene)-3-(2-(trifluoromethyl)-4-(1-(5-(trifluoromethyl)pyridin-2-yl)-1H-1,2,4-triazol-3-yl)phenyl)urea]
pest or weed control at 50 µg/cm2 [1, 3]: 50 to 100% | pest or weed control at 50 µg/cm2 [2, 4]: 50 to 100%

CCCc1ccc(C)cc1N1C(=O)CS/C1=N\C(=O)Nc1ccc(-c2ncn(-c3ccc(C(F)(F)F)cn3)n2)cc1F [Compound J454]
CL rating [1]: A (50-100) | BAW rating [2]: A (50-100)

CCOCc1ccc(C)cc1N1C(=O)CS/C1=N\C(=O)Nc1ccc(-c2ncn(-c3ccc(C(F)(F)C(F)(F)F)cc3)n2)cc1C [Compound J796, (Z)-1-(3-(2-(Ethoxymethyl)-5-methylphenyl)-4-oxothiazolidin-2-ylidene)-3-(2-methyl-4-(1-(4-(perfluoroethyl)phenyl)-1H-1,2,4-triazol-3-yl)phenyl)urea]
mortality at 50 µg/cm2 [1]: 50 to 100% | BAW rating (% control or mortality class) [2]: A (50-100)

CN(C)c1cccc(N2C(=O)CS/C2=N\C(=O)Nc2ccc(-c3ncn(-c4ccc(OC(F)(F)F)cc4)n3)cc2F)c1 [Compound J84, (Z)-1-(3-(3-(Dimethylamino)phenyl)-4-oxothiazolidin-2-ylidene)-3-(2-fluoro-4-(1-(4-(trifluoromethoxy)phenyl)-1H-1,2,4-triazol-3-yl)phenyl)urea]
pest or weed control at 50 µg/cm2 [1, 3]: 50 to 100% | pest or weed control at 50 µg/cm2 [2, 4]: 50 to 100%

Cc1ccc(COCC(F)(F)F)c(N2C(=O)C(Cl)(Cl)S/C2=N\C(=O)Nc2ccc(-c3ncn(-c4ccc(OC(F)(F)F)cc4)n3)cc2F)c1 [Compound J458, (Z)-1-(5,5-dichloro-3-(5-methyl-2-((2,2,2-trifluoroethoxy)methyl)phenyl)-4-oxothiazolidin-2-ylidene)-3-(2-fluoro-4-(1-(4-(trifluoromethoxy)phenyl)-1H-1,2,4-triazol-3-yl)phenyl)urea]
pest or weed control at 50 µg/cm2 ([1]; read-out: CL rating): 50 to 100% | pest or weed control at 50 µg/cm2 ([2]; read-out: BAW rating): 50 to 100%

Cc1ccc(COCCC(F)(F)F)c(N2C(=O)CS/C2=N\C(=O)Nc2ccc(-c3ncn(-c4ccc(C(F)(F)F)cc4)n3)cc2F)c1 [Compound J547]
CL rating [1]: A (50-100) | BAW rating [2]: A (50-100)

CC(C)c1ccc(N(C)C)cc1N1C(=O)CS/C1=N\C(=O)Nc1ccc(-c2ncn(-c3ccc(C#N)cc3)n2)cc1F [Compound J290, (Z)-1-(4-(1-(4-Cyanophenyl)-1H-1,2,4-triazol-3-yl)-2-fluorophenyl)-3-(3-(5-(dimethylamino)-2-isopropylphenyl)-4-oxothiazolidin-2-ylidene)urea]
pest or weed control at 50 µg/cm2 [1, 3]: 50 to 100% | pest or weed control at 50 µg/cm2 [2, 4]: 50 to 100%

Cc1ccc(OCCC(F)(F)F)c(N2C(=O)C(Cl)S/C2=N\C(=O)Nc2ccc(-c3ncn(-c4ccc(OC(F)(F)F)cc4)n3)cc2F)c1 (stereo not drawn) [Compound J36, (Z)-1-(5-Chloro-3-(5-methyl-2-(3,3,3-trifluoropropoxy)phenyl)-4-oxothiazolidin-2-ylidene)-3-(2-fluoro-4-(1-(4-(trifluoromethoxy)phenyl)-1H-1,2,4-triazol-3-yl)phenyl)urea]
pest or weed control at 50 µg/cm2 [1, 3]: 50 to 100% | pest or weed control at 50 µg/cm2 [2, 4]: 50 to 100%

COC(c1ccc(C)cc1N1C(=O)CS/C1=N\C(=O)Nc1ccc(-n2cnc(-c3ccc(OC(F)(F)F)cc3)n2)cc1F)C(F)(F)F (stereo not drawn) [Compound J687, (Z)-1-(2-Fluoro-4-(3-(4-(trifluoromethoxy)phenyl)-1H-1,2,4-triazol-1-yl)phenyl)-3-(3-(5-methyl-2-(2,2,2-trifluoro-1-methoxyethyl)phenyl)-4-oxothiazolidin-2-ylidene)urea]
pest or weed control at 50 µg/cm2 ([1]; read-out: CL rating): 50 to 100% | pest or weed control at 50 µg/cm2 ([2]; read-out: BAW rating): 50 to 100%

COc1c(C)cccc1N1C(=O)CS/C1=N\C(=O)Nc1ccc(-c2ncn(-c3ccc(OC(F)(F)F)cc3)n2)cc1F [Compound J798, (Z)-1-(2-Fluoro-4-(1-(4-(trifluoromethoxy)phenyl)-1H-1,2,4-triazol-3-yl)phenyl)-3-(3-(2-methoxy-3-methylphenyl)-4-oxothiazolidin-2-ylidene)urea]
mortality at 50 µg/cm2 [1]: 50 to 100% | BAW rating (% control or mortality class) [2]: A (50-100)

COc1ccc(COCC(F)(F)F)c(N2C(=O)CS/C2=N\C(=O)Nc2ccc(-c3ncn(-c4ccc(C(F)(F)F)cc4)n3)cc2C)c1 [Compound J580]
CL rating [1]: A (50-100) | BAW rating [2]: A (50-100)

Cc1cc(-c2ncn(-c3ccc(S(F)(F)(F)(F)F)cc3)n2)ccc1NC(=O)/N=C1\SCC(=O)N1c1cccc(C)c1COCC(F)(F)F [Compound J578]
CL rating [1]: A (50-100) | BAW rating [2]: A (50-100)

Cc1ccc(C(C)C)c(N2C(=O)CS/C2=N\C(=O)Nc2ccc(-c3ncn(-c4cccc(C(F)(F)F)c4)n3)cc2)c1 [Compound J323, (Z)-1-(3-(2-isopropyl-5-methylphenyl)-4-oxothiazolidin-2-ylidene)-3-(4-(1-(3-(trifluoromethyl)phenyl)-1H-1,2,4-triazol-3-yl)phenyl)urea]
pest or weed control at 50 µg/cm2 [1, 3]: 50 to 100% | pest or weed control at 50 µg/cm2 [2, 4]: 50 to 100%

Cc1ccc(COCC(F)(F)F)c(N2C(=O)CS/C2=N\C(=O)Nc2ccc(-c3ncn(-c4ccc(S(F)(F)(F)(F)F)cc4)n3)cc2C(F)(F)F)c1 [Compound J626, (Z)-1-(3-(5-Methyl-2-((2,2,2-trifluoroethoxy)methyl)phenyl)-4-oxothiazolidin-2-ylidene)-3-(4-(1-(4-(pentafluoro-λ^6-sulfaneyl)phenyl)-1H-1,2,4-triazol-3-yl)-2-(trifluoromethyl)phenyl)urea]
pest or weed control at 50 µg/cm2 ([1]; read-out: CL rating): 50 to 100% | pest or weed control at 50 µg/cm2 ([2]; read-out: BAW rating): 50 to 100%

COc1ccc(C(C)C)c(N2C(=O)CS/C2=N\C(=O)Nc2ccc(-c3ncn(-c4ccc(C(F)(F)F)cn4)n3)cc2C)c1 [Compound J292, (Z)-1-(3-(2-Isopropyl-5-methoxyphenyl)-4-oxothiazolidin-2-ylidene)-3-(2-methyl-4-(1-(5-(trifluoromethyl)pyridin-2-yl)-1H-1,2,4-triazol-3-yl)phenyl)urea]
pest or weed control at 50 µg/cm2 [1, 3]: 50 to 100% | pest or weed control at 50 µg/cm2 [2, 4]: 50 to 100%

COC(C)c1ccc(C)cc1N1C(=O)CS/C1=N\C(=O)Nc1c(F)cc(-c2ncn(-c3ccc(OC(F)(F)F)cc3)n2)cc1F (stereo not drawn) [Compound J81, (Z)-1-(2,6-Difluoro-4-(1-(4-(trifluoromethoxy)phenyl)-1H-1,2,4-triazol-3-yl)phenyl)-3-(3-(2-(1-methoxyethyl)-5-methylphenyl)-4-oxothiazolidin-2-ylidene)urea]
pest or weed control at 50 µg/cm2 [1, 3]: 50 to 100% | pest or weed control at 50 µg/cm2 [2, 4]: 50 to 100%

Cc1ccc(COCC(Cl)(Cl)Cl)c(N2C(=O)CS/C2=N\C(=O)Nc2ccc(-c3ncn(-c4ccc(S(F)(F)(F)(F)F)cc4)n3)cc2F)c1 [Compound J453]
CL rating [1]: A (50-100) | BAW rating [2]: A (50-100)

COC(C)c1ccc(C)cc1N1C(=O)CS/C1=N\C(=O)Nc1ccc(-c2ncn(-c3ccc(OC(F)(F)F)cc3)n2)cc1C#N (stereo not drawn) [Compound J228, (Z)-1-(2-Cyano-4-(1-(4-(trifluoromethoxy)phenyl)-1H-1,2,4-triazol-3-yl)phenyl)-3-(3-(2-(1-methoxyethyl)-5-methylphenyl)-4-oxothiazolidin-2-ylidene)urea]
pest or weed control at 50 µg/cm2 [1, 3]: 50 to 100% | pest or weed control at 50 µg/cm2 [2, 4]: 50 to 100%
